Data published in article PMC4911292 (Clinical cancer research : an official journal of the …, 2016).

Legend:
[1] = test system: pretreated metastatic breast cancer; settings: single agent; cited from earlier work
[2] = parameters: species or system human; settings: in vivo
[3] = test system: germline BRCA mutation-associated cancer; settings: monotherapy throughout a 28-day cycle; cited from earlier work
CYP enzymes = settings: cited from earlier work
[4] = test system: advanced triple-negative breast cancer and/or BRCA mutation-associated breast cancer; experiment: Preliminary efficacy; assay type: in vivo, human; settings: veliparib with cisplatin and vinorelbine
[5] = Veliparib pharmacokinetics in plasma and urine; assay type: in vivo, human
[6] = test system: patients with recurrent and/or metastatic TNBC and/or BRCA mutation-associated breast cancer
PARP = settings: at lower doses; cited from earlier work
P-glycoprotein (P-gp) = settings: cited from earlier work
[7] = cited from earlier work
[8] = germline BRCA1 and BRCA2 wild-type, n=26
[9] = germline BRCA1 or BRCA2 mutation positive, n=14
[10] = N=50, veliparib with cisplatin and vinorelbine, any time during study
[11] = veliparib monotherapy, 23 patients
[12] = veliparib with cisplatin and vinorelbine, N=50

SMILES: N.N.[Cl][Pt][Cl] [cisplatin]
- Response rate [1]: less than 10%
- Median C4/C1 ratio for ultrafilterable platinum AUC0-24 [2]: 0.98
- Median C4/C1 ratio for ultrafilterable platinum Cmax [2]: 0.99

SMILES: C[C@]1(c2nc3c(C(N)=O)cccc3[nH]2)CCCN1 [veliparib]
- Current RP2D as monotherapy [3]: 400 mg BID
- Inhibition or induction of major CYP enzymes (CYP enzymes): does not appear to inhibit or induce the activity of major CYP enzymes
- Share of oral clearance accounted for by CYP2D6 (CYP enzymes): ~ 18%
- Share of oral clearance accounted for by additional liver metabolism (CYP enzymes): 10%
- Best overall response: complete response ([4]; 48 patients): 4%
- Progressive disease as best response or not assessed due to disease or toxicity ([4]; 48 patients): 21%
- Stable disease as best response ([4]; 48 patients): 44%
- Overall response rate (CR+PR, confirmed) ([4]; 48 patients, 95% CI 23%-50%): 35%
- Response (CR+PR) ([4]; BRCA mutation present): 57%
- Median progression-free survival ([4]; all 50 patients, 95% CI 4.1-6.7): 5.5 months
- Median overall survival ([4]; all patients, 95% CI 8.1-20.7): 9.6 months
- Best overall response: Complete response (CR) [4, 8]: 1 (4%) n(%)
- Best overall response: Partial response (PR) [4, 8]: 7 (27%) n(%)
- Best overall response: Progressive disease (PD) [4, 8]: 6 (23%) n(%)
- Best overall response: Complete response (CR) [4, 9]: 1 (7%) n(%)
- Best overall response: Partial response (PR) [4, 9]: 7 (50%) n(%)
- Best overall response: Progressive disease (PD) [4, 9]: 1 (7%) n(%)
- Clinical benefit (PFS6) rate [4, 9]: 10 (71%) n(%)
- Median OS ([4]; germline BRCA mutation): 22.6 months
- Median PFS ([4]; germline BRCA mutation): 9.2 months
- 6-month progression-free survival (PFS6) ([4]; germline BRCA mutation absent): 30%
- 6-month progression-free survival (PFS6) ([4]; germline BRCA mutation present): 71%
- Median PFS ([4]; germline BRCA wild-type): 4.2 months
- Best overall response: Complete response (CR) ([4]; total, n=48): 2 (4%) n(%)
- Best overall response: Partial response (PR) ([4]; total, n=48): 15 (31%) n(%)
- Best overall response: Progressive disease (PD) ([4]; total, n=48): 10 (21%) n(%)
- Best overall response: Partial response (PR) ([4]; unknown mutation status, n=8): 1(12%) n(%)
- Best overall response: Progressive disease (PD) ([4]; unknown mutation status, n=8): 3 (38%) n(%)
- Clinical benefit (PFS6) rate ([4]; unknown mutation status, n=8): 2 (25%) n(%)
- Median OS ([4]; unknown mutational status): 6.2 months
- Median PFS ([4]; unknown mutational status): 4.0 months
- Proportion of the first dose excreted in the urine over 12 hours (median) ([5]; cycle 1, N=20): 61.7%
- Proportion of the first dose excreted in the urine over 12 hours (median) ([5]; cycle 4, N=20): 66.7%
- Median C4/C1 ratio of Cmax ([5]; cycle 4 day 1 vs cycle 1 day 0, N=32, range 0.36-2.00): 0.85
- Median C4/C1 ratio of AUC0-6 ([5]; cycle 4 day 1 vs cycle 1 day 0, N=32, range 0.44-1.64): 0.82
- Dose limiting toxicity ([6]; 40 mg dose level, with cisplatin and vinorelbine, one patient, bone marrow involvement of breast cancer): grade 4 thrombocytopenia
- Anemia, All grades [6, 10]: 32 (64%) N (%)
- Anorexia, All grades [6, 10]: 17 (34%) N (%)
- Dehydration, All grades [6, 10]: 17 (34%) N (%)
- Dyspepsia, All grades [6, 10]: 11 (22%) N (%)
- Fatigue, All grades [6, 10]: 40 (80%) N (%)
- Hypokalemia, All grades [6, 10]: 13 (26%) N (%)
- Nausea, All grades [6, 10]: 43 (86%) N (%)
- Neutrophil count decreased, All grades [6, 10]: 31 (62%) N (%)
- Peripheral sensory neuropathy, All grades [6, 10]: 21 (42%) N (%)
- Platelet count decreased, All grades [6, 10]: 33 (66%) N (%)
- Tinnitus, All grades [6, 10]: 26 (52%) N (%)
- Vomiting, All grades [6, 10]: 21 (42%) N (%)
- Recommended phase II dose (RP2D) ([6]; in combination with cisplatin and vinorelbine): 300 mg BID
- Patients reporting AEs on monotherapy ([6]; veliparib monotherapy): Six of 23
- Dyspepsia, any grade [6, 11]: 17%
- Nausea, any grade [6, 11]: 17%
- Vomiting, any grade [6, 11]: 17%
- Grade 3/4 anemia [6, 12]: 30%
- Grade 3/4 neutropenia [6, 12]: 36%
- Grade 3/4 thrombocytopenia [6, 12]: 12%
- PARP inhibition by PAR assay (PARP): 90%
- Inhibition or induction of P-gp (P-glycoprotein (P-gp)): does not appear to inhibit or induce P-gp
- P-gp substrate status (P-glycoprotein (P-gp)): weak P-glycoprotein (P-gp) substrate

SMILES: CCC1=C[C@@H]2CN(C1)Cc1c([nH]c3ccccc13)[C@@](C(=O)OC)(c1cc3c(cc1OC)N(C)[C@H]1[C@@](O)(C(=O)OC)[C@H](OC(C)=O)[C@]4(CC)C=CCN5CC[C@]31[C@@H]54)C2 [vinorelbine]
- Renal excretion, share of the administered dose [7]: approximately 10%
